System: 596521-263-R-J1-PDC complex spheroids, viability % of control
Assay: Anticancer human tumor 596521-263-R-J1-PDC patient-derived soft tissue sarcoma cell line growth inhibition [GQUAD]
Settings: for IC50: curve of first compound; for viability, T/C: stronger effect = lower value; active = viability on the fitted dose curve at most 10% of control; inactive = the rest
Method in brief: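 Multi-cell-type spheroids of tumor cells with HUVEC and mesenchymal stem cells, treated with drug combinations. Concentrations descend in half-log steps from near clinical Cmax, or from 10 microM where Cmax is unknown; viability read-out.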

[1] = second compound 0.0316 µM, first compound 0.0316 µM
[2] = second compound 0.0316 µM, first compound 0.316 µM
[3] = second compound 0.1 µM, first compound 0.0316 µM
[4] = second compound 0.1 µM, first compound 0.316 µM
[5] = second compound 0.316 µM, first compound 0.0316 µM
[6] = second compound 0.316 µM, first compound 0.316 µM
[7] = second compound 1 µM, first compound 0.0316 µM
[8] = second compound 1 µM, first compound 0.316 µM
[9] = second compound 3.16 µM, first compound 0.0316 µM
[10] = second compound 3.16 µM, first compound 0.316 µM
[11] = second compound 10 µM, first compound 0.0316 µM
[12] = second compound 10 µM, first compound 0.316 µM
[13] = second compound 0.0316 µM, first compound 0.1 µM
[14] = second compound 0.0316 µM, first compound 1 µM
[15] = second compound 0.0316 µM, first compound 3.16 µM
[16] = second compound 0.0316 µM, first compound 10 µM
[17] = second compound 0.1 µM, first compound 0.1 µM
[18] = second compound 0.1 µM, first compound 1 µM
[19] = second compound 0.1 µM, first compound 3.16 µM
[20] = second compound 0.1 µM, first compound 10 µM
[21] = second compound 0.316 µM, first compound 0.1 µM
[22] = second compound 0.316 µM, first compound 1 µM
[23] = second compound 0.316 µM, first compound 3.16 µM
[24] = second compound 0.316 µM, first compound 10 µM
[25] = second compound 1 µM, first compound 0.1 µM
[26] = second compound 1 µM, first compound 1 µM
[27] = second compound 1 µM, first compound 3.16 µM
[28] = second compound 1 µM, first compound 10 µM
[29] = second compound 3.16 µM, first compound 0.1 µM
[30] = second compound 3.16 µM, first compound 1 µM
[31] = second compound 3.16 µM, first compound 3.16 µM
[32] = second compound 3.16 µM, first compound 10 µM
[33] = second compound 10 µM, first compound 0.1 µM
[34] = second compound 10 µM, first compound 1 µM
[35] = second compound 10 µM, first compound 3.16 µM
[36] = second compound 10 µM, first compound 10 µM
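Also: spheroids exposed to drugs for 7 days before viability reading.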
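For viability, T/C in this document: 100% = DMSO vehicle control viability.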

Cc1[nH]c2ccccc2c1CCNCc1ccc(/C=C/C(=O)NO)cc1 + Cc1cnc(CNC(=O)c2c(=O)c3ccc(N4CCCN(C)CC4)nc3n3c2sc2ccccc23)cn1
active: viability, T/C [2] 2% | viability, T/C [4] 2.65% | viability, T/C [6] 2.74% | viability, T/C [8] 0.29% | viability, T/C [10] 0.21% | viability, T/C [12] 0.24%
49.3 nM: IC50 (second compound 0.316 µM)
< 0.999 nM: IC50 (second compound 10 µM)
57.5 nM: IC50 (second compound 0.1 µM)
inactive: viability, T/C (second compound 0.0316 µM, first compound 0.000999 µM) 103% | viability, T/C (second compound 0.0316 µM, first compound 0.00316 µM) 88.9% | viability, T/C (second compound 0.0316 µM, first compound 0.00999 µM) 83.1% | viability, T/C [1] 58.4% | viability, T/C (second compound 0.0316 µM, first compound 0.0999 µM) 29.2% | viability, T/C (second compound 0.1 µM, first compound 0.000999 µM) 99.9% | viability, T/C (second compound 0.1 µM, first compound 0.00316 µM) 81.8% | viability, T/C (second compound 0.1 µM, first compound 0.00999 µM) 79.7% | viability, T/C [3] 61.8% | viability, T/C (second compound 0.1 µM, first compound 0.0999 µM) 40.6% | viability, T/C (second compound 0.316 µM, first compound 0.000999 µM) 83.2% | viability, T/C (second compound 0.316 µM, first compound 0.00316 µM) 73.9% | viability, T/C (second compound 0.316 µM, first compound 0.00999 µM) 67.8% | viability, T/C [5] 63.3% | viability, T/C (second compound 0.316 µM, first compound 0.0999 µM) 34.3% | viability, T/C (second compound 1 µM, first compound 0.000999 µM) 65.2% | viability, T/C (second compound 1 µM, first compound 0.00316 µM) 67.5% | viability, T/C (second compound 1 µM, first compound 0.00999 µM) 67.8% | viability, T/C [7] 48% | viability, T/C (second compound 1 µM, first compound 0.0999 µM) 36.8% | viability, T/C (second compound 3.16 µM, first compound 0.000999 µM) 49.9% | viability, T/C (second compound 3.16 µM, first compound 0.00316 µM) 54.4% | viability, T/C (second compound 3.16 µM, first compound 0.00999 µM) 54% | viability, T/C [9] 47.4% | viability, T/C (second compound 3.16 µM, first compound 0.0999 µM) 30.5% | viability, T/C (second compound 10 µM, first compound 0.000999 µM) 41.9% | viability, T/C (second compound 10 µM, first compound 0.00316 µM) 19.3% | viability, T/C (second compound 10 µM, first compound 0.00999 µM) 43.1% | viability, T/C [11] 37.8% | viability, T/C (second compound 10 µM, first compound 0.0999 µM) 0.34%
44.4 nM: IC50 (second compound 0.0316 µM)
18.5 nM: IC50 (second compound 3.16 µM)
39.4 nM: IC50 (second compound 1 µM)

COc1cc(C2c3cc4c(cc3C(OC3OC5COC(C)OC5C(O)C3O)C3COC(=O)C23)OCO4)cc(OC)c1O (stereo unspecified) + Cc1cnc(CNC(=O)c2c(=O)c3ccc(N4CCCN(C)CC4)nc3n3c2sc2ccccc23)cn1
2800 nM: IC50 (second compound 0.316 µM)
inactive: viability, T/C [1] 99.8% | viability, T/C [13] 83.6% | viability, T/C [2] 77.8% | viability, T/C [14] 53.8% | viability, T/C [15] 50.7% | viability, T/C [16] 42.4% | viability, T/C [3] 91.8% | viability, T/C [17] 92% | viability, T/C [4] 75.8% | viability, T/C [18] 52% | viability, T/C [19] 56.6% | viability, T/C [20] 45.5% | viability, T/C [5] 76.6% | viability, T/C [21] 73.3% | viability, T/C [6] 81.6% | viability, T/C [22] 58% | viability, T/C [23] 50.3% | viability, T/C [24] 47.8% | viability, T/C [7] 65.9% | viability, T/C [25] 57.5% | viability, T/C [8] 55.5% | viability, T/C [26] 52.2% | viability, T/C [27] 51.1% | viability, T/C [28] 38.1% | viability, T/C [9] 56.3% | viability, T/C [29] 52.1% | viability, T/C [10] 55% | viability, T/C [30] 46.6% | viability, T/C [31] 50.4% | viability, T/C [32] 33.1% | viability, T/C [11] 48.8% | viability, T/C [33] 37.6% | viability, T/C [12] 47.1% | viability, T/C [34] 40.7% | viability, T/C [35] 43.5% | viability, T/C [36] 19.4%
> 10000 nM: IC50 (second compound 0.1 µM)
1770 nM: IC50 (second compound 3.16 µM)
2670 nM: IC50 (second compound 0.0316 µM)
1650 nM: IC50 (second compound 1 µM)
< 31.6 nM: IC50 (second compound 10 µM)

CC1COCCN1c1cc(C2(S(C)(=N)=O)CC2)nc(-c2ccnc3[nH]ccc23)n1 (stereo unspecified) + Cc1[nH]c2ccc(F)cc2c1-c1nc2c3cccnc3c3ncccc3c2[nH]1
8240 nM: IC50 (second compound 0.1 µM)
inactive: viability, T/C [1] 94.5% | viability, T/C [13] 92.9% | viability, T/C [2] 92.1% | viability, T/C [14] 79.2% | viability, T/C [15] 64.5% | viability, T/C [16] 50.9% | viability, T/C [3] 104% | viability, T/C [17] 95.5% | viability, T/C [4] 90.8% | viability, T/C [18] 79.6% | viability, T/C [19] 63.1% | viability, T/C [20] 47.2% | viability, T/C [5] 100% | viability, T/C [21] 111% | viability, T/C [6] 98.5% | viability, T/C [22] 84.5% | viability, T/C [23] 62.6% | viability, T/C [24] 46.1% | viability, T/C [7] 94.5% | viability, T/C [25] 92.8% | viability, T/C [8] 85.5% | viability, T/C [26] 86.1% | viability, T/C [27] 67.9% | viability, T/C [28] 51.4% | viability, T/C [9] 80.3% | viability, T/C [29] 89% | viability, T/C [10] 87.2% | viability, T/C [30] 65.6% | viability, T/C [31] 62.6% | viability, T/C [32] 42.1% | viability, T/C [11] 80.5% | viability, T/C [33] 72.6% | viability, T/C [12] 81% | viability, T/C [34] 61.7% | viability, T/C [35] 55.3% | viability, T/C [36] 43.9%
7650 nM: IC50 (second compound 0.316 µM)
4760 nM: IC50 (second compound 10 µM)
> 10000 nM: IC50 (second compound 0.0316 µM) | IC50 (second compound 1 µM)
6020 nM: IC50 (second compound 3.16 µM)

Reference: PubChem BioAssay AID2060500 (Molecular Pharmacology Branch, DTP, NCI, 2025)
